# Test system: CT-26 murine colorectal adenocarcinoma cell line
# Experiment: Anti-tumor response of CT-26 tumor-bearing BALB/c mice (syngeneic model)
# Format: in vivo, mouse
# From the text: This experiment compared the anti-tumor response of tumor-bearing mice to treatment with one of three regimens: (i) monotherapy with a murine anti-mouse PD-1 monoclonal antibody of murine isotype IgG1 (Anti-PD1); (ii) monotherapy with trametinib and (iii) combination therapy with anti-PD1 and trametinib administered concurrently. Murine isotype IgG1 is the murine counterpart isotype to human isotype IgG4.
# While human tumor cells or tumor explants can be grown in immunodeficient animals as xenografts, they cannot be used for testing immunotherapeutics because of the lack of a functional immune system. For a meaningful evaluation of immunotherapeutics or combination of immunotherapeutics with other agents, it is necessary to use a syngeneic model in which syngeneic tumors are grown in animals with an intact immune system. CT-26 is a murine colorectal adenocarcinoma cell line syngeneic to the BALB/c mouse strain. CT-26 carries a KRAS mutation that activates the mitogen-activating protein kinase pathway, which makes it a relevant model to evaluate sensitivity to trametinib (an inhibitor of mitogen-activated protein kinase kinase). This is also a relevant model system for evaluating the mechanism of action for an anti-PD-1 antibody because of the translatable molecular profile of this tumor post-anti-PD-1 therapy. […]
structure (smiles),measurement,setting,value
"CC(=O)Nc1cccc(-n2c(=O)n(C3CC3)c(=O)c3c(Nc4ccc(I)cc4F)n(C)c(=O)c(C)c32)c1 [trametinib, N-{3-[3-cyclopropyl-5-(2-fluoro-4-iodo-phenylamino)6,8-dimethyl-2,4,7-trioxo-3,4,6,7-tetrahydro-2H-pyrido[4,3-d]pyrimidin-1-yl]phenyl}acetamide]",effect of trametinib on the anti-tumor effects of Anti-PD1,combination treatment arm,did not appear to antagonize
same,animals with complete regression (CR),"end of the 23 day treatment period, 12 mice per group",no CRs

# — patent US10010608B2, “Combination therapies for cancer” (MERCK SHARP & DOHME CORP., priority 2013, dated 2018)
